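Where inhibition never reached the appropriate level, the endpoint shown equals the highest concentration tested. Otherwise, values were interpolated linearly from a five-concentration, 48-hour dose response in 96-well plates. GI50 is the concentration that inhibits growth by half. The concentration for full growth arrest is given as TGI.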
How the values were obtained:
Assay in all cases: growth of human tumour cells (NCI), 48 h
HL-60(TB) leukemia = tested on: HL-60(TB) leukemia
SK-MEL-28 melanoma = tested on: SK-MEL-28 melanoma
NCI-H23 lung = tested on: NCI-H23 lung
RXF 393 renal = tested on: RXF 393 renal
CCRF-CEM leukemia = tested on: CCRF-CEM leukemia
SF-539 CNS = tested on: SF-539 CNS
SNB-75 CNS = tested on: SNB-75 CNS
OVCAR-3 ovarian = tested on: OVCAR-3 ovarian
NCI-H226 lung = tested on: NCI-H226 lung
HOP-62 NSCLC = tested on: HOP-62 NSCLC

| SMILES | TGI (HL-60(TB) leukemia) | TGI (SK-MEL-28 melanoma) | TGI (NCI-H23 lung) | TGI (RXF 393 renal) | TGI (CCRF-CEM leukemia) | TGI (SF-539 CNS) | TGI (SNB-75 CNS) | TGI (OVCAR-3 ovarian) | TGI (NCI-H226 lung) | TGI (HOP-62 NSCLC) | GI50 (NCI-H226 lung) | GI50 (SK-MEL-28 melanoma) | GI50 (NCI-H23 lung) | GI50 (RXF 393 renal) | GI50 (CCRF-CEM leukemia) | GI50 (SF-539 CNS) | GI50 (SNB-75 CNS) | GI50 (OVCAR-3 ovarian) | GI50 (HOP-62 NSCLC) |
| --- | --- | --- | --- | --- | --- | --- | --- | --- | --- | --- | --- | --- | --- | --- | --- | --- | --- | --- | --- |
| CC1CC2=C(S(=O)(=O)c3ccccc3)CC(S(=O)(=O)c3ccccc3)(S(=O)(=O)c3ccccc3)CC21 (stereo not given) | > 100 µM | > 100 µM | > 100 µM | > 100 µM | > 100 µM | > 100 µM | > 100 µM | > 100 µM | > 100 µM | > 100 µM | – | – | – | – | – | – | – | – | – |
| CCOC(=O)Cn1c(=O)ccn(COCCO)c1=O | > 100 µM | > 100 µM | > 100 µM | > 100 µM | > 100 µM | > 100 µM | > 100 µM | > 100 µM | – | > 100 µM | – | – | – | – | – | – | – | – | – |
| Clc1ccc(C[P+](c2ccccc2)(c2ccccc2)c2ccccc2)c(Cl)c1 | 3.25 µM | 20.1 µM | 13 µM | 8.67 µM | 21.3 µM | 15.8 µM | 7.54 µM | 13.8 µM | 7.77 µM | 27.9 µM | – | – | – | – | – | – | – | – | – |
| C[C@@H]1Nc2cc(NC(=O)OCCF)nc(N)c2N=C1c1ccccc1 | < 0.0001 µM | > 100 µM | > 100 µM | > 100 µM | – | < 0.0001 µM | > 100 µM | < 0.0001 µM | – | – | < 0.0001 µM | – | – | – | – | – | – | – | – |
| CCOC(=O)CNC(=O)N(CC)C12CC3CC(CC(C3)C1)C2 | 314 µM | 560 µM | 419 µM | 388 µM | 388 µM | 251 µM | 361 µM | 287 µM | 371 µM | 266 µM | – | – | – | – | – | – | – | – | – |
| CCOC(=O)c1ccc(N[C@@H]2c3cc4c(cc3C(c3cc(OC)c(O)c(OC)c3)[C@H]3C(=O)OCC32)OCO4)cc1O (stereo not given in full) | 5.66 µM | 42 µM | 4.26 µM | 6.77 µM | > 100 µM | 2.69 µM | > 23.2 µM | 8.75 µM | 2.39 µM | 1.56 µM | – | – | – | – | – | – | – | – | – |
| COc1cc2oc(-c3ccc(O)cc3)c(OC)c(=O)c2c(O)c1OC | – | > 100 µM | > 100 µM | > 100 µM | > 100 µM | > 100 µM | > 100 µM | > 100 µM | > 100 µM | > 100 µM | 45.7 µM | > 100 µM | 63.4 µM | 29 µM | 15.2 µM | 44.1 µM | 45.2 µM | > 100 µM | 42.3 µM |
| CCOP(=O)(OCC)C(c1ccc(F)cc1)N(C(=O)NC(F)(F)F)c1cccc(C(F)(F)F)c1 (stereo not given) | > 100 µM | > 100 µM | > 100 µM | > 100 µM | > 100 µM | > 100 µM | > 100 µM | > 100 µM | > 100 µM | > 100 µM | – | – | – | – | – | – | – | – | – |
| CCC(C)NC1=NCC(C)S1 (stereo not given) | > 100 µM | > 100 µM | > 100 µM | > 100 µM | > 100 µM | > 100 µM | > 100 µM | > 100 µM | > 100 µM | > 100 µM | – | – | – | – | – | – | – | – | – |
| COCCCNc1nc(N)c(C#N)c(C#N)c1C#N | > 10 µM | > 10 µM | > 10 µM | > 10 µM | 6.67 µM | > 10 µM | > 10 µM | > 10 µM | > 10 µM | > 10 µM | – | – | – | – | – | – | – | – | – |
| COc1ccc(S(=O)(=O)c2ccccc2[N+](=O)[O-])cc1 | > 100 µM | > 100 µM | > 100 µM | > 100 µM | > 100 µM | > 100 µM | > 100 µM | > 100 µM | > 100 µM | > 100 µM | – | – | – | – | – | – | – | – | – |
| CC1CCCCNC1=S (stereo not given) | > 10 µM | > 10 µM | > 10 µM | > 10 µM | > 10 µM | > 10 µM | > 10 µM | > 10 µM | > 10 µM | > 10 µM | – | – | – | – | – | – | – | – | – |
| CC(=O)Nc1ccc(/C=C/c2ccc(NC(=O)Nc3ccc(/C=C/c4ccc(NC(C)=O)cc4S(=O)(=O)O)c(S(=O)(=O)O)c3)cc2S(=O)(=O)O)c(S(=O)(=O)O)c1 | > 100 µM | > 100 µM | > 100 µM | > 100 µM | > 100 µM | > 100 µM | > 100 µM | > 100 µM | > 100 µM | > 100 µM | – | – | – | – | – | – | – | – | – |
